Drawing on article PMC5719402, “Protein-Structure Assisted Optimization of 4,5-Dihydroxypyrimidine-6-Carboxamide Inhibitors of Influenza Virus Endonuclease” (Scientific Reports, 2017), this text covers IC50 and Ki for 31 compounds.

The subject of one experiment is influenza virus A/Puerto Rico/8/34 (H1N1). Nature of the experiment: microbe, parasite or virus in culture. The experiment is classed as cell-based. The note with it: H1N1, MDCK, read-out: plaque IC50.
Consider `O=C(NCCOc1ccccc1)c1nc([C@@H]2CCCN2C(=O)CCc2ccccc2Cl)[nH]c(=O)c1O` [Compound 9b], for which the IC50 (in general, the point on the concentration scale where inhibition reaches its midpoint) stood at 6600 nM.
Regarding `O=C(NCCOc1ccccc1)c1nc([C@@H]2CCCN2C(=O)CSc2ccccc2Cl)[nH]c(=O)c1O` [Compound 9k], the 50% inhibitory concentration (IC50) is 7200 nM.
`COc1ccc(S(=O)(=O)CCNC(=O)c2nc([C@@H]3CCCN3C(=O)CSc3ccccc3Cl)[nH]c(=O)c2O)cc1` [Compound 10g]: the IC50 stood at 9100 nM.

The target in the next experiment is wild type PAN protein (PA endonuclease domain) (Influenza A virus, UniProt C3W5S0). Put plainly: biochemical. It counts as binding. The note with it: FP Ki.
As for `COCCNC(=O)c1nc([C@@H]2CCCN2C(=O)COc2ccccc2)[nH]c(=O)c1O` [Compound 6e], affinity was put at a Ki of 1600 nM.
With `O=C(NCCc1ccccc1)c1nc([C@@H]2CCCN2C(=O)c2cc(Cl)ncc2Cl)[nH]c(=O)c1O` [Compound 7d], the Ki (in general, a measure of affinity in units of concentration, obtained from inhibition or displacement) was 100 ± 20 nM.
`O=C(NCCc1ccccc1)c1nc([C@@H]2CCCN2C(=O)c2ccnc(Cl)c2)[nH]c(=O)c1O` [Compound 7e] showed a Ki of 17500 ± 1100 nM.
Consider `O=C(NCc1cccc(C(F)(F)F)c1)c1nc([C@@H]2CCCN2C(=O)c2c(Cl)cncc2Cl)[nH]c(=O)c1O` [Compound 8a], for which the inhibitory constant (Ki) worked out at 160 ± 40 nM.
Still for that read-out and setting: the same measure for `Cn1c([C@@H]2CCCN2C(=O)c2c(Cl)cncc2Cl)nc(C(=O)NCCc2ccccc2)c(O)c1=O` [Compound 8b]: 70 ± 20 nM; for `O=C(NCCc1cccc(C(F)(F)F)c1)c1nc([C@@H]2CCCN2C(=O)c2c(Cl)cncc2Cl)[nH]c(=O)c1O` [Compound 8c]: 100 ± 30 nM.
Turning to `O=C(NCCOc1ccccc1)c1nc([C@@H]2CCCN2C(=O)c2c(Cl)cncc2Cl)[nH]c(=O)c1O` [Compound 8d], the inhibition constant (Ki) is 50 ± 20 nM.
`Cn1c([C@@H]2CCCN2C(=O)c2c(Cl)cncc2Cl)nc(C(=O)NC2Cc3ccccc3C2)c(O)c1=O` [Compound 8g] gave a Ki of 1700 ± 100 nM.
With `O=C(NCC1Cc2ccccc2C1)c1nc([C@@H]2CCCN2C(=O)c2c(Cl)cncc2Cl)[nH]c(=O)c1O` [Compound 8h], the Ki stood at 100 ± 30 nM.
`O=C(NCCc1ccccc1)c1nc([C@@H]2CCCN2C(=O)CCc2ccccc2Cl)[nH]c(=O)c1O` [Compound 9a] had a Ki of 1200 ± 200 nM.
As for `O=C(NCCc1ccccc1)c1nc([C@@H]2CCCN2C(=O)CCc2ccccc2F)[nH]c(=O)c1O` [Compound 9c], the affinity, expressed as Ki, was 3700 ± 800 nM.
Still for that read-out and setting: the same measure for `O=C(NCCOc1ccccc1)c1nc([C@@H]2CCCN2C(=O)CCc2ccccc2F)[nH]c(=O)c1O` [Compound 9d]: 500 ± 100 nM.
Compound `O=C(NCCc1ccccc1)c1nc([C@@H]2CCCN2C(=O)COc2ccccc2F)[nH]c(=O)c1O` [Compound 9g] displayed an inhibitory constant (Ki) of 1300 ± 400 nM.
Same read-out and setting: with `O=C(NCCOc1ccccc1)c1nc([C@@H]2CCCN2C(=O)COc2ccccc2F)[nH]c(=O)c1O` [Compound 9h] the figure was 440 ± 30 nM.
`O=C(NCCc1ccccc1)c1nc([C@@H]2CCCN2C(=O)CSc2ccccc2Cl)[nH]c(=O)c1O` [Compound 9i] yielded a Ki of 290 ± 40 nM.
As to `O=C(NCCc1ccccc1)c1nc([C@@H]2CCCN2C(=O)C[S+]([O-])c2ccccc2Cl)[nH]c(=O)c1O` (stereo partly shown) [Compound 9j], the inhibitory constant (Ki) was found to be 400 ± 70 nM.
In the case of `O=C(NCCc1ccccc1)c1nc([C@@H]2CCCN2C(=O)CSc2ccccc2F)[nH]c(=O)c1O` [Compound 9l], affinity was put at a Ki of 1200 ± 100 nM.
For `O=C(NCCOc1ccccc1)c1nc([C@@H]2CCCN2C(=O)CSc2ccccc2F)[nH]c(=O)c1O` [Compound 9m], the affinity corresponds to a Ki of 240 ± 30 nM.
As to `O=C(NCCSc1ccccc1)c1nc([C@@H]2CCCN2C(=O)COc2ccccc2Cl)[nH]c(=O)c1O` [Compound 10a], the affinity corresponds to a Ki of 560 ± 20 nM.
`O=C(NCC[S+]([O-])c1ccccc1)c1nc([C@@H]2CCCN2C(=O)COc2ccccc2Cl)[nH]c(=O)c1O` (stereo partly shown) [Compound 10c] gave an inhibition constant (Ki) of 200 ± 30 nM.
Compound `O=C(NCCS(=O)(=O)c1ccccc1)c1nc([C@@H]2CCCN2C(=O)COc2ccccc2Cl)[nH]c(=O)c1O` [Compound 10d] gave a Ki of 46 ± 1 nM.
Compound `COc1ccc(S(=O)(=O)CCNC(=O)c2nc([C@@H]3CCCN3C(=O)COc3ccccc3Cl)[nH]c(=O)c2O)cc1` [Compound 10f] showed a Ki of 38 ± 9 nM.
Still for that read-out and setting: the same measure for `O=C(NC1Cc2ccccc2C1)c1nc([C@@H]2CCCN2C(=O)COc2ccccc2Cl)[nH]c(=O)c1O` [Compound 10h]: 470 ± 70 nM.
For `O=C(NCc1cc2ccccc2o1)c1nc([C@@H]2CCCN2C(=O)CSc2ccccc2Cl)[nH]c(=O)c1O` [Compound 10l], the affinity, expressed as Ki, was 1000 ± 200 nM.
On to `O=C(NCCc1ccncc1)c1nc([C@@H]2CCCN2C(=O)COc2ccccc2F)[nH]c(=O)c1O` [Compound 10n], for which the inhibitory constant (Ki) stood at 256 ± 7 nM.

The same experiment, now with this note: WT FP Ki.
Compound `O=C(NCCOc1ccccc1)c1nc([C@@H]2CCCN2C(=O)COc2ccccc2Cl)[nH]c(=O)c1O` [Compound 9f] had an inhibitory constant (Ki) of 500 ± 200 nM.
Compound `O=C(NCCc1ccccn1)c1nc([C@@H]2CCCN2C(=O)COc2ccccc2F)[nH]c(=O)c1O` [Compound 10m] showed a Ki of 400 ± 200 nM.

Staying with this experiment, now noted: read-out: WT FP Ki.
With `O=C(O)C(=O)CC(=O)c1ccccc1` [DPBA, reference compound], the inhibitory constant (Ki) stood at 3700 ± 500 nM.
